The values that follow come from US11655235B2, “Pyrrolidine and piperidine compounds” (YUHAN CORPORATION, priority 2019, dated 2023).

pIC50: −log10 of the molar value. Read-outs that look alike come from different tables or passages of the source.

For orientation: pIC50 means −log10 of the IC50, conventionally taken in molar units. The IC50 is the concentration that gives 50% inhibition.

Common to all, as to type: biochemical
One assay has as its target DPP4 (Homo sapiens, UniProt P27487). The experiment in a line: DPP4 inhibition, fluorogenic substrate H-Gly-Pro-AMC. More on the design: purchased R&D Systems.
Another assay addresses T1, recombinant human PREP (Homo sapiens, UniProt P48147).
T1 construct: purchased R&D System
T1 sequence (P48147 1-710): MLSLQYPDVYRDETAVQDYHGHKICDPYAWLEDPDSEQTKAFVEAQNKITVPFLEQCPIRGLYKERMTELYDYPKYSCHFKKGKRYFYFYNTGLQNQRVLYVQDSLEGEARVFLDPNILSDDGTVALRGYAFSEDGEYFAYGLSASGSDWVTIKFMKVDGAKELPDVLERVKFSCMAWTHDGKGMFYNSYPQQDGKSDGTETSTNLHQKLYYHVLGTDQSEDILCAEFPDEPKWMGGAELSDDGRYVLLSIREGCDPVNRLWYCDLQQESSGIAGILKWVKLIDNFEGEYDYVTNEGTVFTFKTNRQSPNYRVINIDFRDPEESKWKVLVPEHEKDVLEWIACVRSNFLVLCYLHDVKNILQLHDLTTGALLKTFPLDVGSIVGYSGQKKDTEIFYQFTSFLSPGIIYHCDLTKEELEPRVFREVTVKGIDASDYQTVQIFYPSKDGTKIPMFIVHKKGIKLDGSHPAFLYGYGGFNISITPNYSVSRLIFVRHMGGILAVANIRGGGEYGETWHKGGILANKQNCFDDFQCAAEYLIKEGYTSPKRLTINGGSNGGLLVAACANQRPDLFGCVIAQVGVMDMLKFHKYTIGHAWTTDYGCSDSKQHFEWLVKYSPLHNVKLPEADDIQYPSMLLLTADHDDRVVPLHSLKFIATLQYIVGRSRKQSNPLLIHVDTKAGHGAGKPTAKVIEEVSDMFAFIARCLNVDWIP
Description: PREP inhibition, fluorogenic substrate Z-Gly-Pro-AMC. The following applies: Inhibitory Activity (IC50, nM) PREP. Summed up:
(§1)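 Enzyme per reaction: 50 ng DPP9, 20 ng DPP8, 10 ng each DPP7 and PREP. Compounds were serially diluted (8 points, up to 0.5% DMSO) and incubated at 25 °C.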

The next assay deals with T2, recombinant human DPP8 (Homo sapiens, UniProt Q6V1X1).
T2 construct: purchased PBS Bioscience
Description: DPP8 inhibition, fluorogenic substrate Z-Ala-Pro-AMC. An outline of the steps: as §1

Another assay deals with T3, recombinant human DPP7 (Homo sapiens, UniProt Q9UHL4).
T3 construct: purchased R&D Systems
Description: DPP7 inhibition, fluorogenic substrate Lys-Pro-AMC. Summed up: as §1

The next assay has as its target T4, recombinant human DPP9 (Homo sapiens, UniProt Q86TI2).
T4 construct: purchased R&D Systems
The experiment in a line: DPP9 inhibition, fluorogenic substrate H-Gly-Pro-AMC. Summed up:
as §1

For the next assay, the target named is T5, Recombinant human FAP (Homo sapiens, UniProt Q12884).
T5 construct: purchased R&D systems
T5 sequence (Q12884 1-760): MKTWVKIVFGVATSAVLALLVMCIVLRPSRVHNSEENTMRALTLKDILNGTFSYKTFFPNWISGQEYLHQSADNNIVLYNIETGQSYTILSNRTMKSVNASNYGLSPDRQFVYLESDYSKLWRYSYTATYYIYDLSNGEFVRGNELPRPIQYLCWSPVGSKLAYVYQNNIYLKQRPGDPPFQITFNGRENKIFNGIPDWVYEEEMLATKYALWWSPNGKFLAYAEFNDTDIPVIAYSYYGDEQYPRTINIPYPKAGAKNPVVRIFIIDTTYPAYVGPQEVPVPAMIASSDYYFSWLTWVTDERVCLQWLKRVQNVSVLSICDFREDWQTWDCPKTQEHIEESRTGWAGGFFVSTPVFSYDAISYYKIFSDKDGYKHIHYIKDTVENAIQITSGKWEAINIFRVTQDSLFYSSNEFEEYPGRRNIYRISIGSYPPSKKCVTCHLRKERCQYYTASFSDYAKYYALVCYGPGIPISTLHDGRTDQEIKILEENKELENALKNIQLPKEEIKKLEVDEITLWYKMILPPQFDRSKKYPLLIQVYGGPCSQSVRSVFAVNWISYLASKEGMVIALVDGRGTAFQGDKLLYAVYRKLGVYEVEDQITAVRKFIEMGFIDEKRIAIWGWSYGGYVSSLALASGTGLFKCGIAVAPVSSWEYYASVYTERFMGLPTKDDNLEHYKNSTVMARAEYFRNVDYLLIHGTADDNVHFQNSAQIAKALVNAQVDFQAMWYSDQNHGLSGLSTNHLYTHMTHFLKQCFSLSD
Description: FAP inhibition, fluorogenic substrate Z-Gly-Pro-AMC. An outline of the steps:
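Recombinant human FAP, 10 ng per reaction, in 50 mM Tris pH 7.5 with 1 M NaCl and 1 mg/ml BSA at 25° C; substrate Z-Gly-Pro-AMC, ≤0.1% DMSO. AMC fluorescence read at ex 380/em 460 nm; % signal-rate decrease vs no-inhibitor control, 8-point curves fitted to a four-parameter logistic for IC50.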

Setting [1] is: recombinant human FAP, substrate Z-Gly-Pro-AMC.
Setting [2] is: 25° C., H-Gly-Pro-AMC substrate.
[3] abbreviates: 25° C., Z-Gly-Pro-AMC substrate.
Setting [4] is: 25° C., Z-Ala-Pro-AMC substrate.

T2 sequence (Q6V1X1 whole entry): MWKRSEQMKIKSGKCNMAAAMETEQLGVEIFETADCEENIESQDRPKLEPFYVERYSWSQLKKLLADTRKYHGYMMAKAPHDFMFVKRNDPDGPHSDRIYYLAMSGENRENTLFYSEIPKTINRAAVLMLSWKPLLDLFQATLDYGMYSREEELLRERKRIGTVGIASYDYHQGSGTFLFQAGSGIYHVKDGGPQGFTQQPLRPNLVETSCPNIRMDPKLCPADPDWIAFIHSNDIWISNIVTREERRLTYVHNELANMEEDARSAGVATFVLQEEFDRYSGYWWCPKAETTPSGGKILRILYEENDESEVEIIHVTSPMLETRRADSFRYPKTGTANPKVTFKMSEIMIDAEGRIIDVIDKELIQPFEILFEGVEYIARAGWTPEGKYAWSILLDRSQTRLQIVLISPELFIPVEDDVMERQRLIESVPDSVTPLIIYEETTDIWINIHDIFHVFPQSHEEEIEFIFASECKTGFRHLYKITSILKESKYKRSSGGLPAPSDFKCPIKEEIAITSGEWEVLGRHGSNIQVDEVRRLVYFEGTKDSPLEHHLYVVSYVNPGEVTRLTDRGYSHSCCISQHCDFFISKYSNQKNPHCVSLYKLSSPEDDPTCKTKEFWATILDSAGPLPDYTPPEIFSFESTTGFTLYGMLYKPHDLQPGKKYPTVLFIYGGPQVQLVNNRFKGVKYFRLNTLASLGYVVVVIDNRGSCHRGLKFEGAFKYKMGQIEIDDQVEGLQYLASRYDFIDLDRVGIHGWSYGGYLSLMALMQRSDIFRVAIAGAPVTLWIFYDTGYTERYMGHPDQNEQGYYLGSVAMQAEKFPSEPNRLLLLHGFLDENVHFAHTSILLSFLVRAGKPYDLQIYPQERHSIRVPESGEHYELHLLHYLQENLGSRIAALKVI
T4 sequence (Q86TI2 whole entry): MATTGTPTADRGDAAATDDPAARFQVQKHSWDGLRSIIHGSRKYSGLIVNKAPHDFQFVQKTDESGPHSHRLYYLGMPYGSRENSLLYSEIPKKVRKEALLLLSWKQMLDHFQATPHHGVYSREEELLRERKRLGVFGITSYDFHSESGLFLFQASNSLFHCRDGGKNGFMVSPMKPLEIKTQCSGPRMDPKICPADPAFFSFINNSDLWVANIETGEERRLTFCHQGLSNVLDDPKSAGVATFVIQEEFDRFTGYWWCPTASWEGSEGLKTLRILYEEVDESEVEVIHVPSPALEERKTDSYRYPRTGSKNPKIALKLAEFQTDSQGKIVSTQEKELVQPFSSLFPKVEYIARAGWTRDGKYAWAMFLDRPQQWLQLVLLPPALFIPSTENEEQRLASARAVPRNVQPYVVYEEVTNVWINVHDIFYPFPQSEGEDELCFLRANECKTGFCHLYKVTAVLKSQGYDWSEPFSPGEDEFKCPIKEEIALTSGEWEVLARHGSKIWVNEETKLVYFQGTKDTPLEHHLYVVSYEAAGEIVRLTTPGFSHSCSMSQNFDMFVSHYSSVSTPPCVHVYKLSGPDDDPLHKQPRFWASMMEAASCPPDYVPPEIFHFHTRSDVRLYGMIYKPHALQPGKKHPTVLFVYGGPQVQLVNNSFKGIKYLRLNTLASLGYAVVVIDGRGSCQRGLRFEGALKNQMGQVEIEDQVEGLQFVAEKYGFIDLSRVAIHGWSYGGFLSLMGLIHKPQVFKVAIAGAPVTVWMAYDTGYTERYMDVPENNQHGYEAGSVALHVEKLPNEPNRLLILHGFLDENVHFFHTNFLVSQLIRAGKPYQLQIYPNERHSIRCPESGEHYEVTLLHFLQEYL
DPP4, sequence (P27487 whole entry): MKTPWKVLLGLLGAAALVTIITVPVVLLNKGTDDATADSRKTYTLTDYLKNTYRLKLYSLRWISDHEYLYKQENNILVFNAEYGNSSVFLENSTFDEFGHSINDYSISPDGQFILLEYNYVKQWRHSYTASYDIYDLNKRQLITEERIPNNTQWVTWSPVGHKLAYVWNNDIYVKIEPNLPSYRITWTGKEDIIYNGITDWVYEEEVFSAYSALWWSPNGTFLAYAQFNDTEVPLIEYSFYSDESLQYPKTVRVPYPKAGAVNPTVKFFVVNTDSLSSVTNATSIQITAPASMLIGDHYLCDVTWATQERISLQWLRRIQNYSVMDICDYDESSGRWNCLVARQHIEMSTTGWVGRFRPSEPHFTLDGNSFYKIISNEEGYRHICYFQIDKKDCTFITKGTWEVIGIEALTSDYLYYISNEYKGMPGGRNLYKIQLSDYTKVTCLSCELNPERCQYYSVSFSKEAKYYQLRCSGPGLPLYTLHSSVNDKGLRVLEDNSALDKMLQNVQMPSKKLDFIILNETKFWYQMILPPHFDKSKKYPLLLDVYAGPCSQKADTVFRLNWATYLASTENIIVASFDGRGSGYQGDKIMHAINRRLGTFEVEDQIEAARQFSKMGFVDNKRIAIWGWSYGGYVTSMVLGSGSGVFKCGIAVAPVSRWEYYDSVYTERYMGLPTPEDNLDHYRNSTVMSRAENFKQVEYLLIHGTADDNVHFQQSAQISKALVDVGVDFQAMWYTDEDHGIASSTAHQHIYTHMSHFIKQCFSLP

As to `N#C[C@@H]1C[C@H](F)CN1C(=O)CN1CC[C@H](Nc2c(F)ccc3ncccc23)C1` [Example 261, (2S,4S)-4-fluoro-1-[2-[(3S)-3-[(6-fluoro-5-quinolyl)amino]pyrrolidin-1-yl]acetyl]pyrrolidine-2-carbonitrile], the negative logarithm of the IC50 (pIC50) at DPP4 (recombinant human DPP4) is 5.93; on recombinant human DPP8 (recombinant human DPP8) it was 4.68; on recombinant human DPP7 (recombinant human DPP7) it was 5.18; on recombinant human DPP9 (recombinant human DPP9), 5.03; on Recombinant human FAP (setting [1]) it was 8.70. Moreover, at recombinant human PREP (recombinant human PREP), the IC50 is 3940 nM.

Take `CN(c1cnc2ccccc2c1)C1CCN(CC(=O)N2C[C@@H](F)C[C@H]2C#N)CC1` [Example 316, (2S,4S)-4-fluoro-1-[2-[4-[methyl(3-quinolyl)amino]-1-piperidyl]acetyl]pyrrolidine-2-carbonitrile]: the pIC50 at DPP4 (recombinant human DPP4) is less than 5.00; on recombinant human DPP8 (recombinant human DPP8), less than 4.00; on recombinant human DPP7 (recombinant human DPP7), 5.73; at recombinant human DPP9 (recombinant human DPP9), 5.09; on Recombinant human FAP (setting [1]) it was 8.51. In addition, at recombinant human PREP (recombinant human PREP), the IC50 was 500 nM.

For the compound `N#C[C@@H]1C[C@H](F)CN1C(=O)CN1CCC(Oc2ccnc3ccc(Cl)cc23)CC1` [Example 127, (2S,4S)-1-(2-(4-((6-chloroquinolin-4-yl)oxy)piperidin-1-yl)acetyl)-4-fluoropyrrolidine-2-carbonitrile], the pIC50 is less than 5.00 against DPP4 (setting [2]); 5.06 at recombinant human DPP8 (setting [4]); 5.03 on recombinant human DPP7; 4.63 at recombinant human DPP9 (setting [2]); 9.19 at Recombinant human FAP (setting [3]). Also, the IC50 at recombinant human PREP (setting [3]) was 621 nM.

For the compound `N#C[C@@H]1CC(F)(F)CN1C(=O)CN1CC[C@H](Nc2cnc3ccccc3c2)C1` [Example 6, (S)-4,4-difluoro-1-(2-((S)-3-(quinolin-3-ylamino)pyrrolidin-1-yl)acetyl)pyrrolidine-2-carbonitrile], the pIC50 is less than 6.00 on DPP4 (setting [2]); 5.10 on recombinant human DPP8 (setting [4]); 7.34 on recombinant human DPP7; 5.24 on recombinant human DPP9 (setting [2]); 8.74 at Recombinant human FAP (setting [3]). Also, at recombinant human PREP (setting [3]), the 50% inhibitory concentration (IC50) was greater than 100000 nM.

For the compound `COc1cc(N[C@H]2CCN(CC(=O)N3CCC[C@H]3C#N)C2)c2cccnc2c1` [Example 237, (2S)-1-[2-[(3S)-3-[(7-methoxy-5-quinolyl)amino]pyrrolidin-1-yl]acetyl]pyrrolidine-2-carbonitrile], the pIC50 was 5.03 at DPP4 (recombinant human DPP4); 4.65 at recombinant human DPP8 (recombinant human DPP8); 6.13 on recombinant human DPP7 (recombinant human DPP7); 4.46 at recombinant human DPP9 (recombinant human DPP9); 8.82 on Recombinant human FAP (setting [1]). For the same compound, the IC50 on recombinant human PREP (recombinant human PREP) stood at 6600 nM.

Turning to `N#C[C@@H]1CCCN1C(=O)CN1CCC(Nc2ccnc3ccccc23)CC1` [Example 111, (S)-1-(2-(4-(quinolin-4-ylamino)piperidin-1-yl)acetyl)pyrrolidine-2-carbonitrile], at DPP4, the “hDPP4 inhibition % at 1 μM” value was “No inhibition**”. Besides, the half-maximal inhibitory concentration (IC50) on recombinant human PREP (setting [3]) was 4170 nM. Further, the pIC50 on recombinant human DPP8 (setting [4]) was 4.50; at recombinant human DPP7, 6.30; on recombinant human DPP9 (setting [2]) it was 4.68; at Recombinant human FAP (setting [3]), 8.08.

Regarding `N#C[C@@H]1CCCN1C(=O)CN1CCC(Nc2cc(F)cc3ncccc23)CC1` [Example 123, (S)-1-(2-(4-((7-fluoroquinolin-5-yl)amino)piperidin-1-yl)acetyl)pyrrolidine-2-carbonitrile], the pIC50 against DPP4 (setting [2]) was less than 5.00; at recombinant human DPP8 (setting [4]), less than 4.52; at recombinant human DPP7, 5.89; on recombinant human DPP9 (setting [2]), 4.35; on Recombinant human FAP (setting [3]), 8.62. Also, the IC50 at recombinant human PREP (setting [3]) is 20100 nM.

As to `Cc1ccc(N[C@H]2CCN(CC(=O)N3C[C@@H](F)C[C@H]3C#N)C2)c2cccnc12` [Example 262, (2S,4S)-4-fluoro-1-[2-[(3S)-3-[(8-methyl-5-quinolyl)amino]pyrrolidin-1-yl]acetyl]pyrrolidine-2-carbonitrile], the pIC50 at DPP4 (recombinant human DPP4) was 5.87; on recombinant human DPP8 (recombinant human DPP8), 5.52; at recombinant human DPP7 (recombinant human DPP7), 6.34; on recombinant human DPP9 (recombinant human DPP9) it was 5.45; at Recombinant human FAP (setting [1]), 8.92. The IC50 at recombinant human PREP (recombinant human PREP) worked out at 1850 nM.

As for `N#C[C@@H]1CC(F)(F)CN1C(=O)CN1CC[C@H](Nc2cncc3ccoc23)C1` [Example 12, (S)-4,4-difluoro-1-(2-((S)-3-(furo[3,2-c]pyridin-7-ylamino)pyrrolidin-1-yl)acetyl)pyrrolidine-2-carbonitrile], the pIC50 on DPP4 (setting [2]) is less than 6.00; at recombinant human DPP8 (setting [4]), 6.43; at recombinant human DPP7 it was greater than 7.52; at recombinant human DPP9 (setting [2]) it was 4.75; on Recombinant human FAP (setting [3]), 9.30. Moreover, the half-inhibitory concentration (IC50) on recombinant human PREP (setting [3]) is greater than 100000 nM.

For the compound `N#C[C@@H]1C[C@H](F)CN1C(=O)CN1CCC(Nc2cc(F)cc3ncccc23)CC1` [Example 132, (2S,4S)-4-fluoro-1-(2-(4-((7-fluoroquinolin-5-yl)amino)piperidin-1-yl)acetyl)pyrrolidine-2-carbonitrile], the pIC50 at DPP4 (setting [2]) is 5.13; on recombinant human DPP8 (setting [4]), 4.86; on recombinant human DPP7, 6.31; on recombinant human DPP9 (setting [2]), 5.44; at Recombinant human FAP (setting [3]) it was 8.66. For the same compound, the IC50 at recombinant human PREP (setting [3]) worked out at 2820 nM.

For `N#C[C@@H]1CCCN1C(=O)CN1CC[C@H](Nc2cncc3ccccc23)C1` [Example 19, (S)-1-(2-((S)-3-(isoquinolin-4-ylamino)pyrrolidin-1-yl)acetyl)pyrrolidine-2-carbonitrile], the pIC50 is less than 6.00 against DPP4 (setting [2]); 4.34 on recombinant human DPP8 (setting [4]); 6.69 on recombinant human DPP7; 4.36 on recombinant human DPP9 (setting [2]); 8.24 on Recombinant human FAP (setting [3]). Also, the IC50 at recombinant human PREP (setting [3]) was 11800 nM.

As for `CN(c1cncc2ccoc12)C1CCN(CC(=O)N2C[C@@H](F)C[C@H]2C#N)CC1` [Example 350, (2S,4S)-4-fluoro-1-[2-[4-[furo[3,2-c]pyridin-7-yl(methyl)amino]-1-piperidyl]acetyl]pyrrolidine-2-carbonitrile], the negative-log IC50 (pIC50) at DPP4 (recombinant human DPP4) was 5.10; at recombinant human DPP8 (recombinant human DPP8), 4.76; at recombinant human DPP7 (recombinant human DPP7), 5.04; on recombinant human DPP9 (recombinant human DPP9), 4.56; on Recombinant human FAP (setting [1]), 8.09. Besides, the IC50 at recombinant human PREP (recombinant human PREP) was found to be 625 nM.

Consider `N#C[C@@H]1CCCN1C(=O)CN1CCC(Oc2ccnc3ccccc23)CC1` [Example 118, (S)-1-(2-(4-(quinolin-4-yloxy)piperidin-1-yl)acetyl)pyrrolidine-2-carbonitrile], for which, on DPP4, the “hDPP4 inhibition % at 1 μM” value was “No inhibition**”. For the same compound, at recombinant human PREP (setting [3]), the concentration for half-maximal inhibition (IC50) worked out at 1040 nM. Also, the pIC50 on recombinant human DPP8 (setting [4]) was 4.07; on recombinant human DPP7 it was 4.99; at recombinant human DPP9 (setting [2]), less than 4.00; on Recombinant human FAP (setting [3]), 8.63.

Consider `Cc1ccc2ncccc2c1N[C@H]1CCN(CC(=O)N2C[C@@H](F)C[C@H]2C#N)C1` [Example 259, (2S,4S)-4-fluoro-1-[2-[(3S)-3-[(6-methyl-5-quinolyl)amino]pyrrolidin-1-yl]acetyl]pyrrolidine-2-carbonitrile], for which the pIC50 is 5.90 on DPP4 (recombinant human DPP4); 4.73 on recombinant human DPP8 (recombinant human DPP8); 5.48 at recombinant human DPP7 (recombinant human DPP7); 5.07 at recombinant human DPP9 (recombinant human DPP9); 8.59 at Recombinant human FAP (setting [1]). Also, the IC50 on recombinant human PREP (recombinant human PREP) worked out at 2470 nM.
